Reference: EP0683161A1, “Ester of 4-amino-5-chloro-2-methoxybenzoic acid, process for their preparation and pharmaceutical compositions containing them” (MIDY S.p.A., priority 1994, dated 1995)

Legend:
récepteur 5-HT₄ [1] = target: T1, récepteur 5-HT₄ (Cavia porcellus, UniProt O70528); assay: 5-HT response of the electrically stimulated guinea pig ileum myenteric plexus (modified Craig and Clarke test); set-up: species or system cobayes; settings: 30 min incubation, cumulative 5-HT curve 10⁻¹⁰ to 10⁻⁵M
T1 construct: On isole le plexus myentérique à partir de segments d'iléon de 3 cm environ; from tissue; host or cells: guinea pig ileum myenteric plexus (isolated organ bath)
Text: Dans le but d'évaluer l'activité vis-à-vis du récepteur 5-HT₄, on a soumis les composés de l'invention à l'essai décrit par D.A. Craig et D.E. Clarke. (J. Pharmacol. Exp. Ther., 1990, 252: 1378-86) en lui apportant quelques modifications.
Des cobayes albinos mâles - Charles River Italia - (poids moyen de 500 g) sont sacrifiés par décapitation. On isole le plexus myentérique à partir de segments d'iléon de 3 cm environ, prélevés à 10 cm de la jonction iléooeecale; on place le plexus dans un bain de 20 ml pour organes isolés, contenant une solution de Krebs et de l'acide ascorbique à raison de 1 mg/ml. On maintient la solution, aérée au carboxygène, à la température de 37°C. Le plexus, relié à un transducteur isotonique et soumis à une charge de 0,5 g, est stimulé électriquement de façon supramaximale (fréquence 0,2 Hz, durée […]) par une électrode coaxiale au platine. La préparation est traitée avec de la phénoxybenzamine 10⁻⁷M pendant 30 minutes et, ensuite, lavée plusieurs fois. On réduit le voltage jusqu'à obtenir un effet stimulant de 50% par rapport au maximum et le plexus est ensuite stimulé par la sérotonine à raison de 3·10⁻⁷M. Après lavage et stabilisation, la préparation est prête pour l'essai des composés à activité 5-HT₄. Trois courbes cumulatives de 5-HT sont construites toutes les 60 minutes. […]

récepteurs 5-HT₄ = récepteurs 5-HT₄ (Rattus norvegicus, UniProt Q62758); assay: 5-HT relaxation of carbachol-contracted rat oesophagus tunica muscularis mucosae (Baxter and Clarke method); settings: rat oesophagus tunica muscularis mucosae contracted by carbachol; result in words only
Text: De plus, toujours pour l'évaluation de l'activité 5-HT₄, on a soumis le composé de formule (I) à un essai sur la tunica muscolaris mucosae de l'oesophage de rat contracté par du carbacol. […] Des rats mâles Crl:CD(SD)BR (Charles River Italia) d'un poids moyen de 250 g sont sacrifiés par dislocation cervicale. Un segment d'oesophage d'environ 2 cm est prélevé au niveau intratoraxique à proximité du diaphragme. La tunica muscolaris mucosae est ensuite isolée et suspendue dans un bain pour organes isolés de 20 ml contenant une solution de Krebs en présence d'hydrocortisone (3·10⁻⁷ M) à 37°C aérée avec 95% O₂ et 5% CO₂. Le tissu est relié à un transducteur isotonique et soumis à une charge de 1 g. La préparation est incubée avec de la pargiline (10⁻⁴ M) pendant 30 minutes et lavée plusieurs fois. Après 60 minutes environ, on contracte le tissu avec des doses cumulatives de carbacol (10⁻⁶, 2·10⁻⁶, 3·10⁻⁶, 4·10⁻⁶ M); de cette manière, on obtient un tonus du tissu stable dans le temps. La 5-HT (10⁻¹⁰ et 10⁻⁶ M), qui est ajoutée cumulativement, relaxe l'oesophage grâce à l'activation des récepteurs 5-HT₄. Trois courbes de carbacol sont construites par préparation toutes les 90 minutes. Après chaque courbe, on procède au moins à 4 lavages. Aussi bien la contraction provoquée par le carbacol que les effets sur celle-ci sont identiques et peuvent être reproduits. […]

récepteur 5-HT₃ = target: T2, récepteur 5-HT₃ (Rattus norvegicus, UniProt P35563); assay: in vitro binding to 5-HT3 sites of rat cerebral cortex, displacement of [3H] BRL 43694 (granisetron); settings: rat cerebral cortex membranes, labelled ligand 0,5 nM
T2 construct: les sites de liaison 5-HT₃ présents dans le cortex cérébral du rat; from tissue; host or cells: rat cerebral cortex membranes
T2 sequence (P35563 24-483): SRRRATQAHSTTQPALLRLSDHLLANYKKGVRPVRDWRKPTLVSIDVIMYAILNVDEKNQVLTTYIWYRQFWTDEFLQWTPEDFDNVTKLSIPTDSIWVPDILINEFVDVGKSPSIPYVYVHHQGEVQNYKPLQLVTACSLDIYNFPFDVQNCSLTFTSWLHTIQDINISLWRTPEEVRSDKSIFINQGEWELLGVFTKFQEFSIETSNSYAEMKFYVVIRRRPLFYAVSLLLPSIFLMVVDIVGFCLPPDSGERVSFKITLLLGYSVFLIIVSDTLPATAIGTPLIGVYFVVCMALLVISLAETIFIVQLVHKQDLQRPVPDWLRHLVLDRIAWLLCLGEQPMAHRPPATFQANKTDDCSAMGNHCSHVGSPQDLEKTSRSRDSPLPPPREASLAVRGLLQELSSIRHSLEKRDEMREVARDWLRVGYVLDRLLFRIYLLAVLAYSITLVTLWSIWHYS
Procedure: Afin de tester l'affinité du composé de formule (I) relativement au récepteur 5-HT₃, on a effectué des essais de liaison in vitro en utilisant les sites de liaison 5-HT₃ présents dans le cortex cérébral du rat (G.J. Kilpatrick, B.J. Jones et M.B. Tyers, Nature, 1987; 330: 746-8) et comme ligand marqué le [³H] BRL 43694 (granisetron), un antagoniste des récepteurs 5-HT₃ puissant et spécifique, à la concentration de 0,5 nM.
La préparation des membranes et le test de liaison ont été effectués selon la méthode décrite par Nelson et Thomas (D.R. Nelson et D.R. Thomas, Biochem. Pharmacol., 1989; 38: 1693-5).
Les résultats ont été évalués avec des méthodes d'ajustement ("fitting") non linéaire "Accufit saturation", pour les études de saturation (H.A. Feldman, Analyt. Biochem., 1972; 48: 317-38) et "Accufit competition", pour les études de déplacement (H.A. Feldman, D. Rodbard et D. Levine, Analyt. Biochem., 1972; 45: 530-56).

récepteur 5-HT₄ [2] = target: récepteur 5-HT₄ (Homo sapiens, UniProt Q13639); assay: activity of the separated cis and trans isomers at the 5-HT4 receptor (test not specified); settings: cis and trans isomers evaluated separately
récepteur 5-HT₄ (Homo sapiens, UniProt Q13639), sequence (Q13639 whole entry): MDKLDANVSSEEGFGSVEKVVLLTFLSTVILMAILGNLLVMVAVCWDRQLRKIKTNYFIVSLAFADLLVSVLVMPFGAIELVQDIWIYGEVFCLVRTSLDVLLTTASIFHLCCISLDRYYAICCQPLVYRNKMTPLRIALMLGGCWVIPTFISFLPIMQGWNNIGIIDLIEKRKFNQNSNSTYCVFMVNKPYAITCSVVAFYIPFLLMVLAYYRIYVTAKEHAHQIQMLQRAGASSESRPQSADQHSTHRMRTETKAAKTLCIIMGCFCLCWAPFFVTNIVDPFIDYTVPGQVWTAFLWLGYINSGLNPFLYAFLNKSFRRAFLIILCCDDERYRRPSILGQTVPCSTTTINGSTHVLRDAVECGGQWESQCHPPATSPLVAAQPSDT

récepteurs 5-HT₄, sequence (Q62758 whole entry): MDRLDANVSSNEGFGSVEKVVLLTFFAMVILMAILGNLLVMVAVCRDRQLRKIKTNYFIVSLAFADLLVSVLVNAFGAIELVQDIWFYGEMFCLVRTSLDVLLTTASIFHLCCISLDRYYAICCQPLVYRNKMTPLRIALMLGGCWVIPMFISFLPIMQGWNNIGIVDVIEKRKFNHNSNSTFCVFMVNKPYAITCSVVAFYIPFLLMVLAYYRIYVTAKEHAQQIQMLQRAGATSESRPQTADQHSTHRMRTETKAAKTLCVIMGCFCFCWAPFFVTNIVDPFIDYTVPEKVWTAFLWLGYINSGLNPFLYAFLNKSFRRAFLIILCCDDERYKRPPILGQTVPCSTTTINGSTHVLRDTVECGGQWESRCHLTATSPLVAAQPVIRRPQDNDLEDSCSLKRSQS
T1 sequence (O70528 whole entry): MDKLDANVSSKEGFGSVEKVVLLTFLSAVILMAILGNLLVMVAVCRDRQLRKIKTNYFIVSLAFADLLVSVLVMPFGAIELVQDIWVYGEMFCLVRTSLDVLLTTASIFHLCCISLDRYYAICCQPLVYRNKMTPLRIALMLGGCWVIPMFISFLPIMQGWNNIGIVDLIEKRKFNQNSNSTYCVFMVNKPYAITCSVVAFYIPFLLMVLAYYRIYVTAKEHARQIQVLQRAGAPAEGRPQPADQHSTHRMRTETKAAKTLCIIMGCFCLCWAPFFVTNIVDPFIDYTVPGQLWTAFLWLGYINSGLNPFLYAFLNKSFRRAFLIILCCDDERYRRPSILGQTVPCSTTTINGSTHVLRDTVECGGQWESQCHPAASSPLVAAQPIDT

SMILES	IC₅₀, dose qui réduit de 50% la réponse de la 5-HT (récepteur 5-HT₄ [1])	pA₂ (antagonism of 5-HT relaxation) (récepteurs 5-HT₄)	déplacement du [³H] BRL 43694 (récepteur 5-HT₃)	activité vis-à-vis du récepteur 5-HT₄ (récepteur 5-HT₄ [2])
COc1cc(N)c(Cl)cc1C(=O)OCCN1CC(C)CC(C)C1 (stereo not shown) [composé de formule (I), ester 3,5-diméthylpipéridinoéthyliquede l'acide 4-amino-5-chloro-2-méthoxybenzoïque]	quelques nanomoles	très efficace	inactif	
COc1cc(N)c(Cl)cc1C(=O)OCCN1CC(C)CC(C)C1 (stereo not drawn) [isomère cis, isomère cis de l'ester 3,5-diméthylpipéridinoéthyliquede l'acide 4-amino-5-chloro-2-méthoxybenzoïque]				le plus actif
